Where “and” joins values, the source holds several entries; their conditions need not be identical. Identical values can stand only once.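 A five-concentration, 48-hour dose response in 96-well plates underlies each endpoint, interpolated linearly between surrounding concentrations. The concentration for 50% growth inhibition is given as GI50. TGI denotes the concentration required for complete inhibition of growth.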 Where a SMILES comes first, the peptide text is derived from it. [ ]: non-standard residue; d: D form. Ac5c = NC1(C(=O)O)CCCC1
Test system: HOP-92 NSCLC
Assay: inhibition of tumour cell growth, NCI panel, 48 h

O=C1c2ccccc2C(=O)N1CCCSc1ccccc1 and CCOC(=O)Nc1nc2ccc(Cn3cccc3)cc2[nH]1 cannot be ordered by TGI: greater than 100 µM for the first, greater than 100 µM for the second.

First: COc1cc(Nc2nccc(Nc3ccc4c(C)[nH]nc4c3)n2)cc(OC)c1OC
Second: COc1ccc(/C=N\NC(=O)CN2CCN(c3cc4c(cc3F)c(=O)c(C(=O)N/N=C/c3ccc(OC)c(OC)c3)cn4C3CC3)CC2)cc1OC
The TGI of the first is 5-fold lower: 1.38 µM for the first, 6.9 µM for the second.

Going from COc1cc(Nc2nccc(Nc3ccc4c(C)[nH]nc4c3)n2)cc(OC)c1OC to COc1ccc(/C=N\NC(=O)CN2CCN(c3cc4c(cc3F)c(=O)c(C(=O)N/N=C/c3ccc(OC)c(OC)c3)cn4C3CC3)CC2)cc1OC, the GI50 rises from 0.191 µM to 2.25 µM (12-fold).

Test system: MALME-3M melanoma
Assay: inhibition of tumour cell growth, NCI panel, 48 h

Going from COc1ccc([N+](=O)[O-])c2c(NCCCN(C)C)c3ccccc3nc12 to COc1cc(Nc2nccc(Nc3ccc4c(C)[nH]nc4c3)n2)cc(OC)c1OC, the TGI rises from 0.336 µM to 10.2 µM (30-fold).

Going from CCN1CCN(C(=O)[C@]23CC[C@@H](C)[C@H](C)[C@@H]2C2=CC[C@@H]4[C@@]5(C)C/C(=C/c6ccncc6)C(=O)C(C)(C)[C@@H]5CC[C@@]4(C)[C@]2(C)CC3)CC1 to CC1=C2[C@@H](CC1)[C@]1(C)O[C@@](C3CCCCC3)(C[C@H]1OC(=O)CO)[C@H]2OC(=O)/C=C/c1ccccc1, the TGI rises from 2.83 µM to 28 µM (9.9-fold).

First: NC1(C(=O)NC2(C(=O)O)CCCC2)CCCC1 (H-[Ac5c]-[Ac5c]-OH)
Second: C=C1C(=O)O[C@H]2[C@H]1CC/C(CNC(=O)c1cc3cc(OC)ccc3[nH]1)=C\CC[C@@]1(C)O[C@@H]21
The TGI of the first is higher: greater than 100 µM for the first, 3.98 µM for the second.

Compared with COC(=O)CCc1cc(OC)c2c(c1)C(C(=O)OC)C(c1ccc(OC)c(OC)c1)O2 (stereo not drawn), COc1ccc(/C=N\NC(=O)CN2CCN(c3cc4c(cc3F)c(=O)c(C(=O)N/N=C/c3ccc(OC)c(OC)c3)cn4C3CC3)CC2)cc1OC is lower in TGI: greater than 100 µM for the first, 3.62 µM for the second.

CSc1nc(C)c2c(n1)SCC2 and O=S(=O)(NC1=NCCN1C(=S)SN1CCn2c1nsc2=S)c1ccc(Br)cc1 cannot be ordered by TGI: greater than 10 µM for the first, 56.3 µM for the second.

Compared with O=C(O[C@H]1CN[C@H](C#Cc2cc3ncnc(Nc4ccc5c(ccn5Cc5cc(F)ccc5F)c4)c3s2)C1)N1CCOCC1, CC(=O)c1c(C)[nH]c(-c2nc3ccc(N4CCN(C)CC4)cc3[nH]2)c1-c1ccc(OCC2CCOCC2)cc1 is 3.7-fold lower in TGI: 9.41 µM for the first, 2.57 µM for the second.

Going from Cc1nc2sc(C(=O)Nc3cccc(Cl)c3C)c(N)c2cc1C(=O)/C=C/c1ccccc1 to O=C1c2ccccc2-c2c1c1ccccc1c(=O)n2CCCNCCCn1ccnc1, the TGI rises from 4.47 µM to 13.4 µM (3-fold).

Compared with ClCc1cccc(Cn2cnc3c(NC45CC6CC(CC(C6)C4)C5)ncnc32)c1, CCOC(=O)Nc1nc2ccc(Cn3cccc3)cc2[nH]1 is higher in TGI: 32.4 µM for the first, greater than 100 µM for the second.

First: COC(=O)c1cc2c(cc1Cl)SC(N(N(C)C)S(=O)(=O)c1ccc(Br)s1)=NS2(=O)=O
Second: O=c1c2cc(Cl)ccc2oc2ccc(OCCCCCN3CCCCC3)cc12
The TGI of the first is 5.2-fold higher: 74 µM for the first, 14.1 µM for the second.

With O=C1c2ccccc2C(=O)N1CCCSc1ccccc1 the TGI was greater than 100 µM.

Going from CCN1CCN(C(=O)[C@]23CC[C@@H](C)[C@H](C)[C@@H]2C2=CC[C@@H]4[C@@]5(C)C/C(=C/c6ccncc6)C(=O)C(C)(C)[C@@H]5CC[C@@]4(C)[C@]2(C)CC3)CC1 to CC1=C2[C@@H](CC1)[C@]1(C)O[C@@](C3CCCCC3)(C[C@H]1OC(=O)CO)[C@H]2OC(=O)/C=C/c1ccccc1, the GI50 rises from 1.5 µM to 12 µM (8-fold).

Going from O=C(O[C@H]1CN[C@H](C#Cc2cc3ncnc(Nc4ccc5c(ccn5Cc5cc(F)ccc5F)c4)c3s2)C1)N1CCOCC1 to CC(=O)c1c(C)[nH]c(-c2nc3ccc(N4CCN(C)CC4)cc3[nH]2)c1-c1ccc(OCC2CCOCC2)cc1, the GI50 falls from 4.06 µM to 0.72 µM (5.6-fold).

First: Cc1nc2sc(C(=O)Nc3cccc(Cl)c3C)c(N)c2cc1C(=O)/C=C/c1ccccc1
Second: O=C1c2ccccc2-c2c1c1ccccc1c(=O)n2CCCNCCCn1ccnc1
The GI50 of the first is 11-fold lower: 0.315 µM for the first, 3.33 µM for the second.

Going from C=C1C(=O)O[C@H]2[C@H]1CC/C(CNC(=O)c1cc3cc(OC)ccc3[nH]1)=C\CC[C@@]1(C)O[C@@H]21 to O=c1c2cc(Cl)ccc2oc2ccc(OCCCCCN3CCCCC3)cc12, the GI50 rises from 1.62 µM to 6.86 µM (4.2-fold).

Compared with O=S(=O)(NC1=NCCN1C(=S)SN1CCn2c1nsc2=S)c1ccc(Br)cc1, COC(=O)c1cc2c(cc1Cl)SC(N(N(C)C)S(=O)(=O)c1ccc(Br)s1)=NS2(=O)=O is 2.1-fold higher in GI50: 11.7 µM for the first, 24.9 µM for the second.

First: ClCc1cccc(Cn2cnc3c(NC45CC6CC(CC(C6)C4)C5)ncnc32)c1
Second: COc1cc(Nc2nccc(Nc3ccc4c(C)[nH]nc4c3)n2)cc(OC)c1OC
The GI50 of the first is 10-fold higher: 14.6 µM for the first, 1.4 µM for the second.

For COc1ccc(/C=N\NC(=O)CN2CCN(c3cc4c(cc3F)c(=O)c(C(=O)N/N=C/c3ccc(OC)c(OC)c3)cn4C3CC3)CC2)cc1OC, the GI50 was 1.81 µM.

COC(=O)CCc1cc(OC)c2c(c1)C(C(=O)OC)C(c1ccc(OC)c(OC)c1)O2 (stereo not drawn) was tested, and the GI50 was > 100 µM and 20 µM.

With CC(=O)N[C@H]1C=C[C@@H]2/C=C(C)/C=C/[C@@H](C)[C@H]([C@H](C)[C@H](O)[C@@H](C)NC(C)=O)OC(=O)/C=C/C=C(C)\C=C\[C@]2(C)C1 the TGI was 4.65 µM and 24.7 µM.

Test system: MDA-MB-231 breast
Assay: inhibition of tumour cell growth, NCI panel, 48 h

COc1ccc([N+](=O)[O-])c2c(NCCCN(C)C)c3ccccc3nc12 and CCN1CCN(C(=O)[C@]23CC[C@@H](C)[C@H](C)[C@@H]2C2=CC[C@@H]4[C@@]5(C)C/C(=C/c6ccncc6)C(=O)C(C)(C)[C@@H]5CC[C@@]4(C)[C@]2(C)CC3)CC1 are within 1.5-fold of each other in TGI: 2.31 µM for the first, 2.95 µM for the second.

Work on CCN1CCN(C(=O)[C@]23CC[C@@H](C)[C@H](C)[C@@H]2C2=CC[C@@H]4[C@@]5(C)C/C(=C/c6ccncc6)C(=O)C(C)(C)[C@@H]5CC[C@@]4(C)[C@]2(C)CC3)CC1 yielded a GI50 of 1.55 µM.

Reference: PubChem BioAssay (NCI)
